In patent US6780633B2, “Methods for producing optically active amino acids” (Sumitomo Chemical Company, Limited, priority 1999, dated 2004):

Key:
Assay type in all cases: cell-based
[1] = tested on: Streptomyces roseus IFO12818; assay: effect of aminotransferase inhibitor on production of L-p-chlorophenylalanine from D-form by cells, at equilibrium; details: inhibitor final 1 mM; 30° C., 24 hours (reaction equilibrated); absence of inhibitor = 100%
Experimental: (§1) A 500 mL Sakaguchi flask containing 100 ml of a sterilized medium (pH 7.0) containing 1.0% (w/v) glycerol, 0.2% (w/v) polypeptone (Nihon Pharmaceutical Co., Ltd.), 0.3% (w/v) meat extract (Kyokuto Pharmaceutical Ind., Co., Ltd.), 0.3% (w/v) yeast extract (Difco), 0.1% (w/v) dipotassium phosphate, 0.1% (w/v) potassium mono phosphate, 0.03% (w/v) magnesium sulfate heptahydrate was inoculated with 1 mL of a culture of Nocardia diaphanozonaria strain JCM3208 which had previously been cultivated in a medium of the similar composition, and incubated at 30° C. for 2 days with a reciprocal shaking. 80 ml of this culture was subjected to centrifugation (10000 g, 10 minutes) to collect wet cells. The collected wet cells were washed twice with 80 ml of 100 mM potassium phosphate buffer (pH 7.0) and the wet cells thus obtained was suspended in 4 mL of 100 mM potassium phosphate buffer (pH 7.0) to obtain a cell suspension.
(§2) 0.2 ml of the cell suspension was combined with 1.8 mL of 100 mM potassium phosphate buffer (pH7.0) containing D-p-chlorophenylalanine at 5.5 mM and an aminotransferase inhibitor shown in Table 6 at 1.1 mM, and incubated at 30° C. for 2 hours with a reciprocal shaking at 250 rpm. Each reaction mixture was analyzed at an early stage of the reaction by HPLC to quantify L-p-chlorophenylalanine produced by the reaction. The results are represented as the relative values each based on 100% production of L-p-chlorophenylalanine in the absence of the respective aminotransferase inhibitor.
(§3) The reaction was performed similarly as in Example 6 except for using each of the microorganisms shown in Table 8 instead of Nocardia diaphanozonaria strain JCM3208 and except that the reaction time was 24 hours (when the reaction was equilibrated).

[2] = tested on: Pseudomonas oxalaticus IFO13593; assay: as above; details: inhibitor final 1 mM; 30° C., 24 hours (reaction equilibrated); absence of inhibitor = 100%
Experimental: as §1, §2, §3

[3] = tested on: Arthrobacter pascens IFO12139; assay: as above; details: inhibitor final 1 mM; 30° C., 24 hours (reaction equilibrated); absence of inhibitor = 100%
Experimental: as §1, §2, §3

[4] = tested on: Saccharopolyspora hirsuta JCM9109; assay: as above; details: inhibitor final 1 mM; 30° C., 24 hours (reaction equilibrated); absence of inhibitor = 100%
Experimental: as §1, §2, §3

[5] = tested on: Nocardia diaphanozonaria strain JCM3208; assay: effect of aminotransferase inhibitor on production of L-p-chlorophenylalanine from D-form by cells; details: inhibitor final concentration 1 mM; D-p-chlorophenylalanine 5.5 mM; 30° C., 2 hours (early stage); absence of inhibitor = 100%
Experimental: as §1, §2

[6] = tested on: Pseudomonas taetrolens IFO3460; assay: as above; details: inhibitor final 1 mM; 30° C., 2 hours; absence of inhibitor = 100%
Experimental: as §1, §2
(§4) The reaction was performed similarly as in Example 6 except for using each of the microorganisms shown in Table 7 instead of Nocardia diaphanozonaria strain JCM3208.

[7] = tested on: Klebsiella planticola JCM7251; assay: as above; details: inhibitor final 1 mM; 30° C., 2 hours; absence of inhibitor = 100%
Experimental: as §1, §2, §4

[8] = tested on: Pseudomonas chlororaphis IFO3521; assay: as above; details: inhibitor final 1 mM; 30° C., 2 hours; absence of inhibitor = 100%
Experimental: as §1, §2, §4

[9] = tested on: Rhizobium meliloti IFO14782; assay: as above; details: inhibitor final 1 mM; 30° C., 2 hours; absence of inhibitor = 100%
Experimental: as §1, §2, §4

[10] = tested on: Flavimonas oryzihabitans JCM2952; assay: as above; details: inhibitor final 1 mM; 30° C., 2 hours; absence of inhibitor = 100%
Experimental: as §1, §2, §4

[11] = tested on: Pseudomonas oleovorans IFO13583; assay: as above; details: inhibitor final 1 mM; 30° C., 2 hours; absence of inhibitor = 100%
Experimental: as §1, §2, §4

SMILES: NC1C=CC=C(C(=O)O)C1 (racemic) [DL-Gabaculine]
- Relative value (%) of production of L-p-chlorophenylalanine [1]: 97%
- Relative value (%) of production of L-p-chlorophenylalanine [2]: 105%
- Relative value (%) of production of L-p-chlorophenylalanine [3]: 96%
- Relative value (%) of production of L-p-chlorophenylalanine [4]: 97%
- Relative value (%) of production of L-p-chlorophenylalanine [5]: 92%
- Relative value (%) of production of L-p-chlorophenylalanine [6]: 75%
- Relative value (%) of production of L-p-chlorophenylalanine [7]: 102%
- Relative value (%) of production of L-p-chlorophenylalanine [8]: 72%
- Relative value (%) of production of L-p-chlorophenylalanine [9]: 88%
- Relative value (%) of production of L-p-chlorophenylalanine [10]: 105%
- Relative value (%) of production of L-p-chlorophenylalanine [11]: 87%

SMILES: N[C@H](CCl)C(=O)O [β-Chloro-D-alanine]
- Relative value (%) of production of L-p-chlorophenylalanine [1]: 114%
- Relative value (%) of production of L-p-chlorophenylalanine [2]: 124%
- Relative value (%) of production of L-p-chlorophenylalanine [3]: 83%
- Relative value (%) of production of L-p-chlorophenylalanine [4]: 99%
- Relative value (%) of production of L-p-chlorophenylalanine [5]: 108%
- Relative value (%) of production of L-p-chlorophenylalanine [6]: 84%
- Relative value (%) of production of L-p-chlorophenylalanine [7]: 90%
- Relative value (%) of production of L-p-chlorophenylalanine [8]: 85%
- Relative value (%) of production of L-p-chlorophenylalanine [9]: 108%
- Relative value (%) of production of L-p-chlorophenylalanine [10]: 144%
- Relative value (%) of production of L-p-chlorophenylalanine [11]: 91%

SMILES: N[C@@H](CCl)C(=O)O [β-Chloro-L-alanine]
- Relative value (%) of production of L-p-chlorophenylalanine [1]: 95%
- Relative value (%) of production of L-p-chlorophenylalanine [2]: 91%
- Relative value (%) of production of L-p-chlorophenylalanine [3]: 84%
- Relative value (%) of production of L-p-chlorophenylalanine [4]: 101%
- Relative value (%) of production of L-p-chlorophenylalanine [5]: 121%
- Relative value (%) of production of L-p-chlorophenylalanine [6]: 87%
- Relative value (%) of production of L-p-chlorophenylalanine [7]: 92%
- Relative value (%) of production of L-p-chlorophenylalanine [8]: 102%
- Relative value (%) of production of L-p-chlorophenylalanine [9]: 96%
- Relative value (%) of production of L-p-chlorophenylalanine [10]: 92%
- Relative value (%) of production of L-p-chlorophenylalanine [11]: 94%
